Results reported in ChEMBL document CHEMBL4364269, “Identification of a novel orally bioavailable ERK5 inhibitor with selectivity over p38α and BRD4” (Eur J Med Chem, 2019).
pIC50, pKd: −log10 of the molar value. Values belong to the compound of their own block, whether it stands above or below them.

Key:
[1] = molecular target: T1, Mitogen-activated protein kinase 7 (Homo sapiens, UniProt Q13164); assay: Inhibition of HA-tagged ERK5 (unknown origin) coexpressed with mutationally activated EGFP-MEK5D and Gal4-MEF2D in HEK293 cells assessed as reduction in MEF2 transcription by measuring luciferase signal after 20 hrs by luciferase reporter gene assay; assay type: cell-based
[2] = molecular target: Mitogen-activated protein kinase 14 (Homo sapiens, UniProt Q16539); assay: Inhibition of recombinant N-terminal GST-tagged full length human p38alpha expressed in Escherichia coli cells assessed as substrate phosphorylation using Ulight-MBP peptide as substrate incubated for 1 hr by LANCE assay
[3] = molecular target: T1, Mitogen-activated protein kinase 7; assay: Inhibition of recombinant N-terminal His-tagged human ERK5 (2 to 409 residues) co-expressed with GST-tagged human truncated MEK5DD lacking N-terminal 11 residues (13 to 448 residues) in Sf9 insect cells assessed as substrate peptide phosphorylation using (LVEPLTPSGEAPNQ(K-5FAM)-COOH as substrate incubated for 2 hrs by IMAP fluorescence polarisation assay
[4] = Volume of distribution in CD1 mouse at 10 mg/kg, iv measured upto 24 hrs by LCMS analysis; assay type: ADME, organism-based; settings: in vivo
[5] = Tmax in CD1 mouse at 10 mg/kg, po measured upto 24 hrs by LCMS analysis; assay type: ADME, organism-based; settings: in vivo
[6] = Stability in human liver microsomes assessed as intrinsic clearance per mg protein; assay type: ADME, Microsome; settings: read-out: CLH
[7] = Clearance in CD1 mouse at 10 mg/kg, iv measured upto 24 hrs by LCMS analysis; assay type: ADME, organism-based; settings: in vivo
[8] = system: A2780; assay: Antitumor activity against human A2780 cells xenografted in CD1 mouse assessed as reduction in tumor volume at 100 mg/kg, po administered bid for 10 days started on day 7 post-tumor inoculation and measured three times per week by digital caliper analysis; assay type: functional
[9] = Solubility of compound by turbidometry; assay type: physicochemical
[10] = Cmax in CD1 mouse at 10 mg/kg, po measured upto 24 hrs by LCMS analysis; assay type: ADME, organism-based; design: dose 10 mg/kg, route oral; settings: in vivo
[11] = Fraction unbound in plasma (unknown origin); assay type: ADME, cell-free
[12] = Half life in CD1 mouse at 10 mg/kg, iv measured upto 24 hrs by LCMS analysis; assay type: ADME, organism-based; settings: in vivo
[13] = Permeability across basolateral to apical side in human Caco2 cells; assay type: ADME, cell-based; settings: Caco-2, read-out: permeability
[14] = molecular target: Cytochrome P450 2C9 (Homo sapiens, UniProt P11712); assay: Inhibition of CYP2C9 (unknown origin); assay type: ADME
[15] = molecular target: Cytochrome P450 3A4 (Homo sapiens, UniProt P08684); assay: Inhibition of CYP3A4 (unknown origin); assay type: ADME
[16] = Toxicity in CD1 mouse xenografted with human A2780 cells assessed as body weight at 100 mg/kg, po administered bid for 10 days (reference value: 96%); assay type: organism-based; settings: in vivo, 240 h
[17] = system: PC-3; assay: Growth inhibition of human PC3 cells; assay type: functional
[18] = molecular target: Cytochrome P450 2D6 (Homo sapiens, UniProt P10635); assay: Inhibition of CYP2D6 (unknown origin); assay type: ADME
[19] = molecular target: Cytochrome P450 2C19 (Homo sapiens, UniProt P33261); assay: Inhibition of CYP2C19 (unknown origin); assay type: ADME
[20] = Stability in mouse liver microsomes assessed as intrinsic clearance per mg protein; assay type: ADME, Microsome; settings: read-out: CLH
[21] = Oral bioavailability in CD1 mouse at 10 mg/kg measured upto 24 hrs by LCMS analysis; assay type: ADME, organism-based; settings: in vivo
[22] = AUC in CD1 mouse at 10 mg/kg, iv measured upto 24 hrs by LCMS analysis; assay type: ADME, organism-based; design: time < 24 hr, dose 10 mg/kg, route intravenous; settings: in vivo
[23] = Cmax in CD1 mouse at 10 mg/kg, iv measured upto 24 hrs by LCMS analysis; assay type: ADME, organism-based; design: dose 10 mg/kg, route intravenous; settings: in vivo
[24] = AUC in CD1 mouse at 10 mg/kg, po measured upto 24 hrs by LCMS analysis; assay type: ADME, organism-based; design: dose 10 mg/kg, time < 24 hr, route oral; settings: in vivo
[25] = molecular target: T1, Mitogen-activated protein kinase 7; assay: Inhibition of ERK5 (unknown origin) using R7129 as substrate incubated for 2 hrs by IMAP fluorescence polarization analysis
[26] = system: A2780; assay: Antitumor activity against human A2780 cells xenografted in CD1 mouse assessed as reduction in tumor volume at 50 mg/kg, ip administered bid for 10 days started on day 7 post-tumor inoculation and measured three times per week by digital caliper analysis; assay type: functional
[27] = molecular target: Bromodomain-containing protein 4 (Homo sapiens, UniProt O60885); assay: Inhibition of BRD4 (unknown origin)
[28] = Toxicity in CD1 mouse xenografted with human A2780 cells assessed as body weight at 50 mg/kg, ip administered bid for 10 days (reference value: 96%); assay type: organism-based; settings: in vivo, 240 h

Mitogen-activated protein kinase 14, sequence (Q16539 whole entry, the tested form may be a part): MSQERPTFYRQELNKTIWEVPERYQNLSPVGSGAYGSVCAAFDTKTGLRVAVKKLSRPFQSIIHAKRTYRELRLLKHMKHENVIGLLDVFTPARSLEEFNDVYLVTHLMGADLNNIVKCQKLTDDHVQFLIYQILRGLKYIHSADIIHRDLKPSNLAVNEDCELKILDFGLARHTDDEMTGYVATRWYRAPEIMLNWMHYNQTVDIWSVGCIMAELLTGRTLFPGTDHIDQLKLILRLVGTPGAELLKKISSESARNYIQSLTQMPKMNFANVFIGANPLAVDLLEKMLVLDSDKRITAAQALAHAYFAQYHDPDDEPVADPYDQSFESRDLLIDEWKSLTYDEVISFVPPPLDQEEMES
T1 sequence (Q13164 whole entry, the tested form may be a part): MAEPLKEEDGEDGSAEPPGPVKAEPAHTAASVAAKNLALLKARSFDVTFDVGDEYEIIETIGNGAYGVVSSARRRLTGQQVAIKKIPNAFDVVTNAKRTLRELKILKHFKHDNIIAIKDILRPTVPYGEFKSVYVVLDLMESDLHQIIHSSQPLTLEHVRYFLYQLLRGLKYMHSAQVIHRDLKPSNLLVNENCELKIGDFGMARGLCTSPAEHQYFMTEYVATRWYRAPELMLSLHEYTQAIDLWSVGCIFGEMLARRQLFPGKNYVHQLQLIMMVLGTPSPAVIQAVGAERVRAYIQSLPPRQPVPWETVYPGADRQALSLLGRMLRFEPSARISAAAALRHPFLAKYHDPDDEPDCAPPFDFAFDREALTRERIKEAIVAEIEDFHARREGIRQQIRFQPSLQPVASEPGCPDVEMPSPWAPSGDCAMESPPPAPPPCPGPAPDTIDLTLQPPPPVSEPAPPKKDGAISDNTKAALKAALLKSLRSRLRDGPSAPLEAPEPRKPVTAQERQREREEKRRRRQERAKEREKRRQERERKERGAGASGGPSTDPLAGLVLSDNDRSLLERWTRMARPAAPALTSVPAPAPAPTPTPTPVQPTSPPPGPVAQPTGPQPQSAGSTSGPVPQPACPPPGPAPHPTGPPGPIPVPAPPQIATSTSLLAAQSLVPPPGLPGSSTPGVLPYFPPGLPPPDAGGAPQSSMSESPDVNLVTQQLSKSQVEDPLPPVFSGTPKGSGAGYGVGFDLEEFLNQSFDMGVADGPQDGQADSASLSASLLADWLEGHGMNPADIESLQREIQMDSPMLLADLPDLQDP
Cytochrome P450 3A4, sequence (P08684 whole entry): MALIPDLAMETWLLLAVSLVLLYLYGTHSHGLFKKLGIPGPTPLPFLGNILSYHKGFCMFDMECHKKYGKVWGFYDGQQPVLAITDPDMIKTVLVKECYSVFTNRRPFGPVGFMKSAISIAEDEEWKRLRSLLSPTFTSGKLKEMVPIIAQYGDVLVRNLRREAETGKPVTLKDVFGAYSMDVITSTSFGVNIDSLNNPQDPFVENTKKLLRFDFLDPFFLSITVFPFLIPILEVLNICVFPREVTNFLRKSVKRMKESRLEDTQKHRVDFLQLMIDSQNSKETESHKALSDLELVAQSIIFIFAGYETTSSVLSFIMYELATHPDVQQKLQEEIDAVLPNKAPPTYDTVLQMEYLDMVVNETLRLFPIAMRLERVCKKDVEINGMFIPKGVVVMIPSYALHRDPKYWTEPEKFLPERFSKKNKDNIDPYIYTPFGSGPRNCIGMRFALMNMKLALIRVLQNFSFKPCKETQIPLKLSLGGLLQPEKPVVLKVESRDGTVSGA
Cytochrome P450 2D6, sequence (P10635 whole entry): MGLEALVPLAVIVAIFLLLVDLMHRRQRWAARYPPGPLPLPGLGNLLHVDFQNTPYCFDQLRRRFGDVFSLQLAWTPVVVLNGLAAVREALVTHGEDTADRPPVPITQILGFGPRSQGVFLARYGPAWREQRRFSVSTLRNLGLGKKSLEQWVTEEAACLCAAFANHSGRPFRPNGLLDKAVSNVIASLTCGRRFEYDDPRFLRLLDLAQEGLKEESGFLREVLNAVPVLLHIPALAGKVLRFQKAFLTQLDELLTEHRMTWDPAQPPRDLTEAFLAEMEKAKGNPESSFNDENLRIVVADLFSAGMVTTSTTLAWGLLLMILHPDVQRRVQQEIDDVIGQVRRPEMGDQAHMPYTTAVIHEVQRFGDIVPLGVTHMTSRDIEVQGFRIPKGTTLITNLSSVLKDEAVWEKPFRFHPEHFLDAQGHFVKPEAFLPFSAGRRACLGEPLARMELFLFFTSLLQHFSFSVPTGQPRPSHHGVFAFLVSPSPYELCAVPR
Cytochrome P450 2C9, sequence (P11712 whole entry): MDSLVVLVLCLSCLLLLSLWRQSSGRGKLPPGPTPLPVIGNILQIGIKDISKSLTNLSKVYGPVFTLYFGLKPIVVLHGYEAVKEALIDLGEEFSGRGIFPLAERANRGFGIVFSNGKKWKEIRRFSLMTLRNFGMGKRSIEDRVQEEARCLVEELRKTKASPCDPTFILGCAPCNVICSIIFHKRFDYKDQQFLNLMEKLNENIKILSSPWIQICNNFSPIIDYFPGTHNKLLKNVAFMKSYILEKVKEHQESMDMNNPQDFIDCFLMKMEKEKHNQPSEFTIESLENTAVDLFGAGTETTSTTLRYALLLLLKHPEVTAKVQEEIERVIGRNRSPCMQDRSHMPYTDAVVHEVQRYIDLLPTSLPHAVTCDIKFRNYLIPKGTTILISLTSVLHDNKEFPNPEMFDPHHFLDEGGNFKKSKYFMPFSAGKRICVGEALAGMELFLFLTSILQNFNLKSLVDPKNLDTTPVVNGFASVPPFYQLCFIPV
Cytochrome P450 2C19, sequence (P33261 whole entry): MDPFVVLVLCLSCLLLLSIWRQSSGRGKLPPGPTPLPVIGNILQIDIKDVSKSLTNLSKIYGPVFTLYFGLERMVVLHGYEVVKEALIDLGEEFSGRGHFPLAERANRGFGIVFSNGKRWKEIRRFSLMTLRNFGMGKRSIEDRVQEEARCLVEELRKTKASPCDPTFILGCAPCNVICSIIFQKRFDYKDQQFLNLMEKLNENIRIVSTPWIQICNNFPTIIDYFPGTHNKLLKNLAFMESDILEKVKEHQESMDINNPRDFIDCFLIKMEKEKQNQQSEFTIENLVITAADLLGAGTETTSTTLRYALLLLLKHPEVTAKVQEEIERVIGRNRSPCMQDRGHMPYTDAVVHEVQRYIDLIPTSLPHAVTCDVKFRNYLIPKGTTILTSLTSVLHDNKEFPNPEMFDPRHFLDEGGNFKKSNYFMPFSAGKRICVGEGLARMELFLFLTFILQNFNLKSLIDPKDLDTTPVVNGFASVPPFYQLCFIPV

pIC50 [3]: 5.96
pIC50 [2]: 4.46
SMILES: O=C(Nc1cccnc1)c1cc(C(=O)c2c(F)cccc2F)c[nH]1

pIC50 [3]: 4.40
SMILES: O=C(c1ccccc1)c1c[nH]c(C(=O)NCc2ccncc2)c1

pIC50 [3]: < 3.92
SMILES: O=C(c1ccc(Cl)cc1)c1c[nH]c(C(=O)NCc2ccncc2)c1

pIC50 [3]: 5.36
pIC50 [2]: 4.91
SMILES: O=C(NCc1ccncc1)c1cc(C(=O)c2c(Cl)cccc2Cl)c[nH]1

pIC50 [25]: 5.70
SMILES: O=C(NCc1ccncc1)c1cc(C(=O)c2cccc(Cl)c2Cl)c[nH]1

pKd [27]: 5.80
SMILES: CCOc1cc(N2CCC(O)CC2)ccc1Nc1ncc2c(n1)N(C)c1ccccc1C(=O)N2C
inhibition in vivo at 50 mg/kg [26]: 62%
Activity [28]: 98%

Continued, compound first:

SMILES: O=C(Nc1ccncc1)c1cc(C(=O)c2c(F)cccc2Cl)c[nH]1
pIC50 [1]: 5.64
pIC50 [2]: < 3.92

SMILES: O=C(NCc1ccncc1)c1cc(C(=O)c2c(F)cccc2F)c[nH]1
pIC50 [3]: 4.52
pIC50 [2]: 6.24

SMILES: O=C(c1cccc(F)c1)c1c[nH]c(C(=O)NCc2ccncc2)c1
pIC50 [3]: < 3.92

SMILES: O=C(c1cccc(Cl)c1)c1c[nH]c(C(=O)NCc2ccncc2)c1
pIC50 [3]: 5.20
pIC50 [2]: 5.19

SMILES: O=C(NCc1ccncc1)c1cc(C(=O)c2ccccc2F)c[nH]1
pIC50 [3]: 5.23
pIC50 [2]: 6.44

SMILES: O=C(Nc1ccncc1)c1cc(C(=O)c2c(F)cccc2F)c[nH]1
pIC50 [1]: 5.10
pIC50 [2]: 4.00

SMILES: O=C(Nc1cccnc1)c1cc(C(=O)c2c(F)cccc2Cl)c[nH]1
pIC50 [2]: 4.03

SMILES: O=C(Nc1ccncc1)c1cc(C(=O)c2c(F)cccc2Br)c[nH]1
pIC50 [1]: 5.40
pIC50 [3]: 6.15
pIC50 [2]: < 3.92

SMILES: O=C(c1ccc(F)cc1)c1c[nH]c(C(=O)NCc2ccncc2)c1
pIC50 [3]: < 3.92

SMILES: O=C(NCc1ccncc1)c1cc(C(=O)c2cccc(F)c2F)c[nH]1
pIC50 [3]: 5.15
pIC50 [2]: 5.62

SMILES: O=C(Nc1cccnc1)c1cc(C(=O)c2c(F)cccc2Br)c[nH]1
Vd [4]: 1.2 L/kg
Tmax [5]: 15 min
microsomal CLint [6]: < 5 µL/min/mg
clearance [7]: 27 mL/min/kg
inhibition in vivo at 100 mg/kg [8]: 57%
solubility kinetic [9]: > 100 µM
Cmax [10]: 6 µM
fraction unbound [11]: 0.06
half-life [12]: 38 min
Papp B→A [13]: > 10 ×10⁻⁶ cm/s
pIC50 [14]: < 5.30
pIC50 [15]: < 5.30
Activity [16]: 99%
GI50 [17]: 44 µM
pIC50 [18]: < 5.30
pIC50 [19]: < 5.30
microsomal CLint [20]: 26 µL/min/mg
bioavailability [21]: 68%
AUC at 24 h [22]: 6200 ng·h/mL
pIC50 [2]: < 3.92
Cmax [23]: 25 µM
AUC at 24 h [24]: 4230 ng·h/mL

SMILES: O=C(NCc1ccncc1)c1cc(C(=O)c2ccccc2Cl)c[nH]1
pIC50 [3]: 4.82
